Results from the supplement of paper PMC10331698.
± gives the standard deviation of the averaged measurements.

Legend:
Experiment in all cases: level (log10 ratio to DMSO vehicle control); higher = higher biomarker level / cell amount than vehicle control
[1] = compound: NC(=O)C(F)(F)C(F)(F)C(F)(F)C(F)F; details: in DMSO
Description: (§1)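 BioMAP Diversity Plus panel of 12 human primary cell co-culture systems (3C, 4H, LPS, SAg, BT, BF4T, BE3C, CASM3C, HDF3CGF, KF3CT, MyoF, Mphg). Compounds were added 1 h before stimulation and left for 24 h (MyoF 48 h; BT 72 h for soluble read-outs or 6 d for IgG). Biomarkers were read by ELISA, cytotoxicity by SRB, PBMC viability and proliferation by Alamar Blue. Each well value was divided by the mean of 8 DMSO control wells on the same plate and log10 transformed; duplicate blinded samples were tested at 4 concentrations.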

[2] = compound: COC(=O)C(F)(F)C(F)(F)OC(F)(C(F)(F)F)C(F)(F)OC(F)=C(F)F [Methyl perfluoro(3-(1-ethenyloxypropan-2-yloxy)propanoate)]; details: in DMSO
Description: as §1

[3] = compound: C=CC(=O)OCC(F)(F)C(F)(F)C(F)(F)COC(=O)C=C [1H,1H,5H,5H-Perfluoro-1,5-pentanediol diacrylate]; details: 6700 nM; in DMSO
Description: as §1

[4] = compound: FC(F)(F)C(F)(F)CNCC(F)(F)C(F)(F)F [Bis(1H,1H-perfluoropropyl)amine]; details: in DMSO
Description: as §1

[5] = compound: FC(F)(F)C(F)(F)C(F)(F)C(F)(F)C(F)(F)C(F)(F)C(F)(F)I [1-Iodopentadecafluoroheptane]; details: in DMSO
Description: as §1

Heptafluorobutyl iodide = compound: FC(F)(F)C(F)(F)C(F)(F)CI [Heptafluorobutyl iodide]; details: in DMSO
Description: as §1

Row | Test System | level (log10) ([1]; 6700 nM) | level (log10) ([1]; 20000 nM) | level (log10) ([1]; 60000 nM) | level (log10) ([2]; 6700 nM) | level (log10) ([2]; 20000 nM) | level (log10) [3] | level (log10) ([4]; 6700 nM) | level (log10) ([4]; 20000 nM) | level (log10) ([4]; 60000 nM) | level (log10) ([5]; 6700 nM) | level (log10) ([5]; 20000 nM) | level (log10) (Heptafluorobutyl iodide; 6700 nM) | level (log10) (Heptafluorobutyl iodide; 20000 nM) | level (log10) (Heptafluorobutyl iodide; 60000 nM)
1 | HDF3CGF:CD106/VCAM-1 | -0.0285 ± 0.019 | -0.014 ± 0.024 | -0.04 ± 0.078 | -0.133 ± 0.0057 | -0.313 ± 0.0099 | -0.512 ± 0.033 | 0.017 ± 0.017 | 0.0115 ± 0.013 | 0.009 ± 0.0085 | -0.0165 ± 0.021 | -0.046 ± 0.041 | 0.0715 ± 0.03 | 0.0695 ± 0.057 | 0.0585 ± 0.076
2 | HDF3CGF:CXCL9/MIG | 0.0055 ± 0.00071 | -0.0065 ± 0.012 | -0.0025 ± 0.0035 | 0.01 ± 0.0014 | -0.063 ± 0.014 | -0.779 | -0.002 ± 0.0028 | -0.0025 ± 0.018 | 0.004 ± 0.024 | -0.016 ± 0.0042 | 0.0015 ± 0.0064 | -0.012 ± 0.0071 | -0.0305 ± 0.016 | -0.022 ± 0.011
3 | HDF3CGF:Collagen I | -0.005 ± 0.058 | 0.005 ± 0.021 | 0.027 ± 0.02 | 0.013 ± 0.095 | 0.069 | 0.117 ± 0.0085 | -0.0295 ± 0.015 | -0.015 ± 0.017 | 0.0085 ± 0.056 | 0.017 ± 0.033 | -0.005 ± 0.017 | 0.0275 ± 0.03 | 0.021 ± 0.0099 | 0.065 ± 0.047
4 | HDF3CGF:Collagen III | -0.011 ± 0.0042 | -0.0155 ± 0.012 | -0.0165 ± 0.00071 | -0.059 ± 0.072 | -0.079 ± 0.016 | -0.177 ± 0.015 | -0.002 ± 0.018 | -0.002 ± 0.0042 | 0.0325 ± 0.036 | -0.024 ± 0.014 | -0.023 ± 0.028 | -0.043 ± 0.12 | -0.051 ± 0.018 | -0.0075 ± 0.11
5 | HDF3CGF:EGFR | 0.001 ± 0.033 | 0.0025 ± 0.046 | 0.0125 ± 0.043 | 0.0505 ± 0.054 | -0.005 ± 0.12 | -0.016 ± 0.025 | -0.0205 ± 0.06 | -0.0615 ± 0.14 | 0.034 ± 0.025 | 0.011 ± 0.02 | 0.0135 ± 0.042 | -0.0495 ± 0.064 | -0.054 ± 0.072 | -0.0055 ± 0.04
6 | HDF3CGF:M-CSF | -0.0065 ± 0.0078 | -0.008 ± 0.0014 | 0.017 ± 0.031 | 0.031 ± 0.058 | -0.074 ± 0.069 | -0.482 ± 0.027 | -0.0125 ± 0.025 | -0.018 ± 0.031 | -0.029 ± 0.069 | -0.0165 ± 0.018 | -0.0165 ± 0.0064 | -0.0665 ± 0.063 | -0.065 ± 0.023 | -0.07 ± 0.027
7 | HDF3CGF:MMP-1 | 0.0005 ± 0.00071 | -0.006 ± 0.0042 | 0.003 ± 0.0071 | 0.0115 ± 0.011 | 0.02 ± 0.033 | -0.3945 ± 0.00071 | 0.001 ± 0.0028 | -0.0145 ± 0.0092 | 0.0075 ± 0.0092 | -0.0105 ± 0.0021 | -0.0285 ± 0.018 | -0.014 ± 0.028 | -0.0195 ± 0.021 | -0.0255 ± 0.025
8 | HDF3CGF:PAI-I | -0.012 ± 0.011 | -0.016 ± 0.0099 | 0 ± 0.038 | 0.107 ± 0.0099 | 0.0875 ± 0.00071 | -0.85 ± 0.033 | -0.001 ± 0.0071 | -0.0105 ± 0.013 | 0 ± 0.033 | -0.044 ± 0.0071 | -0.064 ± 0.023 | 0.0035 ± 0.043 | -0.004 ± 0.03 | -0.018 ± 0.027
9 | HDF3CGF:Proliferation 72hr | -0.0005 ± 0.046 | -0.0245 ± 0.06 | -0.0205 ± 0.037 | 0.076 ± 0.018 | -0.163 ± 0.079 | -0.689 ± 0.0099 | 0.002 ± 0.041 | -0.008 | 0.028 ± 0.038 | -0.0275 ± 0.005 | -0.135 ± 0.02 | 0.0025 ± 0.0064 | -0.012 ± 0.0099 | -0.0085 ± 0.039
10 | HDF3CGF:SRB | -0.007 ± 0.0042 | 0.0065 ± 0.016 | -0.0035 ± 0.015 | 0.0845 ± 0.0035 | 0.081 ± 0.0042 | -0.458 ± 0.051 | -0.0275 ± 0.0078 | 0.008 ± 0.0014 | 0.0145 ± 0.05 | 0.013 ± 0.021 | -0.002 ± 0.016 | -0.0315 ± 0.012 | 0.0025 ± 0.037 | 0.0275 ± 0.04
11 | HDF3CGF:TIMP-1 | -0.0005 ± 0.0064 | -0.0095 ± 0.043 | 0.0045 ± 0.039 | 0.0565 ± 0.011 | 0.117 ± 0.021 | -0.245 ± 0.011 | 0 ± 0.0099 | -0.0525 ± 0.049 | 0.011 ± 0.0071 | -0.0185 ± 0.0021 | -0.024 ± 0.0042 | -0.0195 ± 0.037 | -0.019 ± 0.0085 | -0.059 ± 0.025
12 | HDF3CGF:TIMP-2 | 0.015 ± 0.025 | 0.027 ± 0.033 | 0.003 ± 0.0028 | -0.043 ± 0.0028 | -0.051 ± 0.028 | 0.0805 ± 0.016 | -0.005 ± 0.017 | -0.0085 ± 0.033 | 0.022 ± 0.0014 | 0.015 ± 0.0057 | 0.0035 ± 0.0035 | -0.033 ± 0.0042 | -0.044 ± 0.0071 | -0.013 ± 0.051
13 | KF3CT:CCL2/MCP-1 | -0.0055 ± 0.018 | -0.0245 ± 0.0078 | 0.0205 ± 0.026 | -0.015 ± 0.0014 | 0.01 ± 0.0099 | -0.0955 ± 0.018 | -0.0015 ± 0.05 | 0.001 ± 0.048 | -0.012 ± 0.042 | 0.0065 ± 0.0092 | 0.0015 ± 0.016 | -0.0045 ± 0.0021 | -0.018 ± 0.013 | 0.0195 ± 0.016
14 | KF3CT:CD54/ICAM-1 | -0.0075 ± 0.011 | -0.0255 ± 0.005 | -0.008 ± 0.0014 | -0.025 | -0.008 ± 0.0071 | -0.076 ± 0.0042 | -0.011 ± 0.011 | -0.008 ± 0.0085 | 0.012 ± 0.018 | -0.015 ± 0.0085 | -0.018 ± 0.021 | -0.008 ± 0.0071 | -0.004 ± 0.0028 | -0.012 ± 0.0014
15 | KF3CT:CXCL8/IL-8 | -0.009 ± 0.0028 | 0.011 ± 0.011 | 0.019 ± 0.011 | 0.001 ± 0.025 | 0.034 ± 0.014 | -0.041 ± 0.027 | -0.0005 ± 0.005 | -0.0065 ± 0.0092 | 0.0115 ± 0.015 | 0.0135 ± 0.0021 | 0.014 ± 0.0028 | -0.0095 ± 0.00071 | -0.0325 ± 0.005 | -0.015 ± 0.016
16 | KF3CT:CXCL9/MIG | 0.019 ± 0.018 | 0.006 ± 0.02 | 0.0145 ± 0.0078 | -0.013 ± 0.013 | -0.0105 ± 0.025 | -0.0275 ± 0.013 | 0.0085 ± 0.016 | -0.001 ± 0.0028 | 0.007 ± 0.011 | 0.0115 ± 0.022 | 0.012 ± 0.014 | -0.005 ± 0.0014 | -0.008 ± 0.013 | -0.003 ± 0.0071
17 | KF3CT:CXCL10/IP-10 | -0.001 ± 0.0014 | -0.001 ± 0.013 | 0.0025 ± 0.0064 | -0.0235 ± 0.0021 | -0.023 ± 0.0057 | -0.023 ± 0.0085 | -0.0045 ± 0.0078 | -0.0025 ± 0.0035 | 0.0085 ± 0.00071 | -0.005 ± 0.014 | -0.0085 ± 0.00071 | -0.009 ± 0.0014 | -0.0175 ± 0.0078 | -0.013 ± 0.0028
18 | KF3CT:IL-1alpha | -0.0165 ± 0.011 | -0.0265 ± 0.005 | 0.008 ± 0.045 | 0.054 ± 0.02 | 0.071 ± 0.014 | -0.125 ± 0.02 | 0.0045 ± 0.022 | -0.013 ± 0.0014 | 0.0005 ± 0.046 | -0.006 ± 0.0042 | -0.004 ± 0.0071 | -0.0025 ± 0.0078 | -0.04 ± 0.0042 | -0.044 ± 0.0057
19 | KF3CT:TIMP-2 | -0.006 ± 0.0057 | -0.005 ± 0.013 | 0.0015 ± 0.019 | 0.0105 ± 0.018 | 0.0265 ± 0.0092 | -0.056 ± 0.021 | 0.001 ± 0.017 | -0.024 ± 0.014 | 0.016 ± 0.054 | -0.009 ± 0.021 | -0.0225 ± 0.00071 | -0.023 ± 0.018 | 0.0135 ± 0.00071 | -0.0125 ± 0.015
